Values of other authors, collected in PMC8513935.
Each block holds one molecule with its values, some of them ahead of it.

Legend:
[1] = experimental, compiled by the authors from the literature (the ESI cites the sources)
[2] = derived by the authors as gas->solvent minus gas->water (a hypothetical dry solvent; the ESI), not a two-phase measurement

Compound: CCCCC
log K of transfer, gas to solvent ([1]; 1,2-Dichloroethane, 25 C): 1.99 log10 K | log K of transfer, gas to solvent ([1]; Acetonitrile, 25 C): 1.53 log10 K | log K of transfer, gas to solvent ([1]; Benzene, 25 C): 2.19 log10 K | log K of transfer, gas to solvent ([1]; Butan-1-ol, 25 C): 1.98 log10 K | log K of transfer, gas to solvent ([1]; Butan-2-ol, 25 C): 1.94 log10 K | log K of transfer, gas to solvent ([1]; Butanone, 25 C): 2.07 log10 K | log K of transfer, gas to solvent ([1]; Butyronitrile, 25 C): 1.92 log10 K | log K of transfer, gas to solvent ([1]; CCl4, 25 C): 2.36 log10 K | log K of transfer, gas to solvent ([1]; Chlorobenzene, 25 C): 2.43 log10 K | log K of transfer, gas to solvent ([1]; Chloroform, 25 C): 2.36 log10 K | log K of transfer, gas to solvent ([1]; Cyclohexane, 25 C): 2.57 log10 K | log K of transfer, gas to solvent ([1]; Cyclohexanone, 25 C): 1.98 log10 K | log K of transfer, gas to solvent ([1]; Di-n-butyl ether, 25 C): 2.33 log10 K | log K of transfer, gas to solvent ([1]; Dichloromethane, 25 C): 2.24 log10 K | log K of transfer, gas to solvent ([1]; Ethanol, 25 C): 1.78 log10 K | log K of transfer, gas to solvent ([1]; Heptan-1-ol, 25 C): 1.95 log10 K | log K of transfer, gas to solvent ([1]; Hexadecane, 25 C): 2.16 log10 K | log K of transfer, gas to solvent ([1]; Hexan-1-ol, 25 C): 1.97 log10 K | log K of transfer, gas to solvent ([1]; Hexane, 25 C): 2.44 log10 K | log K of transfer, gas to solvent ([1]; Methanol, 25 C): 1.66 log10 K | log K of transfer, gas to solvent ([1]; Octan-1-ol, 25 C): 1.95 log10 K | log K of transfer, gas to solvent ([1]; Pentan-1-ol, 25 C): 1.94 log10 K | log K of transfer, gas to solvent ([1]; Perfluoroalkane, 25 C): 1.55 log10 K | log K of transfer, gas to solvent ([1]; Propan-1-ol, 25 C): 1.81 log10 K | log K of transfer, gas to solvent ([1]; Propan-2-ol, 25 C): 1.85 log10 K | log K of transfer, gas to solvent ([1]; Propanone, 25 C): 1.98 log10 K | log K of transfer, gas to solvent ([1]; Tetrahydrofuran, 25 C): 2.33 log10 K | log K of transfer, gas to solvent ([1]; Toluene, 25 C): 2.3 log10 K | log K of transfer, gas to solvent ([1]; Water, 25 C): -1.7 log10 K | log K of transfer, water to solvent ([2]; 1,2-Dichloroethane, 25 C): 3.69 log10 K | log K of transfer, water to solvent ([2]; Acetone, 25 C): 3.68 log10 K | log K of transfer, water to solvent ([2]; Acetonitrile, 25 C): 3.23 log10 K | log K of transfer, water to solvent ([2]; Benzene, 25 C): 3.89 log10 K | log K of transfer, water to solvent ([2]; Butan-1-ol, 25 C): 3.68 log10 K | log K of transfer, water to solvent ([2]; Butan-2-ol, 25 C): 3.64 log10 K | log K of transfer, water to solvent ([2]; Butanone, 25 C): 3.77 log10 K | log K of transfer, water to solvent ([2]; Butyronitrile, 25 C): 3.62 log10 K | log K of transfer, water to solvent ([2]; CCl4, 25 C): 4.06 log10 K | log K of transfer, water to solvent ([2]; Chlorobenzene, 25 C): 4.13 log10 K | log K of transfer, water to solvent ([2]; Chloroform, 25 C): 4.06 log10 K | log K of transfer, water to solvent ([2]; Cyclohexane, 25 C): 4.27 log10 K | log K of transfer, water to solvent ([2]; Cyclohexanone, 25 C): 3.68 log10 K | log K of transfer, water to solvent ([2]; Di-n-butyl ether, 25 C): 4.03 log10 K | log K of transfer, water to solvent ([2]; Dichloromethane, 25 C): 3.94 log10 K | log K of transfer, water to solvent ([2]; Ethanol, 25 C): 3.48 log10 K | log K of transfer, water to solvent ([2]; Heptan-1-ol, 25 C): 3.65 log10 K | log K of transfer, water to solvent ([2]; Hexadecane, 25 C): 3.86 log10 K | log K of transfer, water to solvent ([2]; Hexan-1-ol, 25 C): 3.67 log10 K | log K of transfer, water to solvent ([2]; Hexane, 25 C): 4.14 log10 K | log K of transfer, water to solvent ([2]; Methanol, 25 C): 3.36 log10 K | log K of transfer, water to solvent ([2]; Octan-1-ol(dry), 25 C): 3.65 log10 K | log K of transfer, water to solvent ([2]; Pentan-1-ol, 25 C): 3.64 log10 K | log K of transfer, water to solvent ([2]; Perfluoroalkane, 25 C): 3.25 log10 K | log K of transfer, water to solvent ([2]; Propan-1-ol, 25 C): 3.51 log10 K | log K of transfer, water to solvent ([2]; Propan-2-ol, 25 C): 3.55 log10 K | log K of transfer, water to solvent ([2]; Tetrahydrofuran, 25 C): 4.03 log10 K | log K of transfer, water to solvent ([2]; Toluene, 25 C): 4.01 log10 K

log K of transfer, gas to solvent ([1]; Hexadecane, 25 C): 4.21 log10 K | log K of transfer, gas to solvent ([1]; Water, 25 C): -0.21 log10 K | log K of transfer, water to solvent ([2]; Hexadecane, 25 C): 4.42 log10 K
Compound: CCCCCCCCl

log K of transfer, gas to solvent ([1]; Chloroform, 25 C): 4.69 log10 K | log K of transfer, gas to solvent ([1]; Hexadecane, 25 C): 3.02 log10 K | log K of transfer, gas to solvent ([1]; Water, 25 C): 1.07 log10 K | log K of transfer, water to solvent ([2]; Chloroform, 25 C): 3.62 log10 K
Compound: CCSCC

log K of transfer, gas to solvent ([1]; Hexadecane, 25 C): 4.35 log10 K | log K of transfer, gas to solvent ([1]; Water, 25 C): 2.38 log10 K | log K of transfer, water to solvent ([2]; Hexadecane, 25 C): 1.97 log10 K
Compound: CCCCNCCCC

Compound: Cc1ccncc1
log K of transfer, gas to solvent ([1]; CCl4, 25 C): 4.46 log10 K | log K of transfer, gas to solvent ([1]; Hexadecane, 25 C): 3.64 log10 K | log K of transfer, gas to solvent ([1]; Water, 25 C): 3.62 log10 K | log K of transfer, water to solvent ([2]; CCl4, 25 C): 0.84 log10 K | log K of transfer, water to solvent ([2]; Hexadecane, 25 C): 0.02 log10 K

log K of transfer, gas to solvent ([1]; Hexadecane, 25 C): 2.97 log10 K | log K of transfer, gas to solvent ([1]; Water, 25 C): 6.88 log10 K | log K of transfer, water to solvent ([2]; Hexadecane, 25 C): -3.9 log10 K
Compound: CNC(C)=O
